“And” between values parts separate entries of the source, which are not always exact repeats. Equal entries are not always repeated. Toxic doses and inconclusive results are not listed. How the source made its calls: active means survival T/C of 150% or more; inactive means T/C below 125% in these data.
System: P388 leukemia ip, CD2F1 mice, survival T/C
Test: NCI In Vivo Anticancer Drug Screen. Data for tumor model P388 Leukemia (intraperitoneal) in CD2F1 (CDF1) mice
Settings: endpoint: median survival time, higher = longer survival
Procedure, shortened: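 Mice carrying the transplanted tumor received test compound or vehicle. Survival was recorded in each group, and the value is the treated-group measurement divided by that of the vehicle-treated control group.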

[1] = dose: 50.0 mg/kg/injection, schedule: Q01DX009 (ip), vehicle: saline
[2] = dose: 100.0 mg/kg/injection, schedule: Q01DX009 (ip), vehicle: saline
[3] = dose: 50.0 mg/kg/injection, schedule: Q01DX009 (ip), vehicle: saline with Tween-80
[4] = dose: 100.0 mg/kg/injection, schedule: Q01DX009 (ip), vehicle: saline with Tween-80
[5] = dose: 200.0 mg/kg/injection, schedule: Q01DX009 (ip), vehicle: saline with Tween-80
[6] = dose: 50.0 mg/kg/injection, schedule: Q01DX005 (ip), vehicle: Klucel (hydroxypropylcellulose) (HPC)
[7] = dose: 100.0 mg/kg/injection, schedule: Q01DX005 (ip), vehicle: Klucel (hydroxypropylcellulose) (HPC)
[8] = dose: 200.0 mg/kg/injection, schedule: Q01DX005 (ip), vehicle: Klucel (hydroxypropylcellulose) (HPC)
[9] = dose: 50.0 mg/kg/injection, schedule: Q04DX003 (ip), vehicle: saline with Tween-80

Measured: T/C

CC1=CCC2C([C@H]1OC(=O)c1ccc([N+](=O)[O-])cc1)C(C)(C)CCC[C@]2(C)O (some centres undefined)
inactive: dose: 100.0 mg/kg/injection, schedule: Q04DX002 (ip), vehicle: Klucel (hydroxypropylcellulose) (HPC) 98 % of control | dose: 200.0 mg/kg/injection, schedule: Q04DX002 (ip), vehicle: Klucel (hydroxypropylcellulose) (HPC) 89 % of control | dose: 400.0 mg/kg/injection, schedule: Q04DX002 (ip), vehicle: Klucel (hydroxypropylcellulose) (HPC) 90 % of control

O=S(=O)(Nc1ccccc1)c1ccc(C2CC3(Cl)C(Cl)=C(Cl)C2(Cl)C3(Cl)Cl)cc1 (centres undefined)
inactive: dose: 100.0 mg/kg/injection, schedule: Q01DX009 (ip), vehicle: saline sonified 90 % of control | dose: 200.0 mg/kg/injection, schedule: Q01DX009 (ip), vehicle: saline sonified 90 % of control | dose: 400.0 mg/kg/injection, schedule: Q01DX009 (ip), vehicle: saline sonified 90 % of control

CC(=O)NCNC(C)=O
inactive: [1] 100 % of control | [2] 97 % of control | dose: 200.0 mg/kg/injection, schedule: Q01DX009 (ip), vehicle: saline 108 % of control

COC(=O)c1ccccc1NC(=NC(C)(C)C)c1ccccc1
inactive: [3] 98 % of control | [4] 98 % of control | [5] 91 % of control

CN(C)N=Nc1ccc(C(N)=O)cc1
inactive: dose: 12.5 mg/kg/injection, schedule: Q01DX009 (ip), vehicle: saline 101 % of control and 103 % of control and 93 % of control | dose: 25.0 mg/kg/injection, schedule: Q01DX009 (ip), vehicle: saline 98 % of control and 99 % of control and 100 % of control | [1] 98 % of control and 107 % of control and 91 % of control | [2] 111 % of control and 96 % of control

COc1cc(CC2C(=O)OCC2C2(c3ccc4c(c3)OCO4)SCCCS2)cc(OC)c1OC (centres undefined)
inactive: dose: 50.0 mg/kg/injection, schedule: Q01DX009 (ip), vehicle: Klucel (hydroxypropylcellulose) (HPC) 105 % of control | dose: 100.0 mg/kg/injection, schedule: Q01DX009 (ip), vehicle: Klucel (hydroxypropylcellulose) (HPC) 91 % of control | dose: 200.0 mg/kg/injection, schedule: Q01DX009 (ip), vehicle: Klucel (hydroxypropylcellulose) (HPC) 93 % of control

C=C(C)/C=C/S(=O)c1ccccc1 (centres undefined)
inactive: [6] 100 % of control | [7] 97 % of control | [8] 98 % of control

NC(N)=O.NC(N)=O.NC(N)=O.NC(N)=O.NC(N)=O.NC(N)=O.[O-][Cl+3]([O-])([O-])O.[V]
inactive: dose: 25.0 mg/kg/injection, schedule: Q04DX003 (ip), vehicle: saline with Tween-80 94 % of control | [9] 97 % of control | dose: 100.0 mg/kg/injection, schedule: Q04DX003 (ip), vehicle: saline with Tween-80 109 % of control

O=c1c2[nH]c3ccccc3sc=2c(=O)n1-c1cccc(Cl)c1
inactive: dose: 50.0 mg/kg/injection, schedule: Q01DX005 (ip), vehicle: saline with Tween-80 102 % of control | dose: 100.0 mg/kg/injection, schedule: Q01DX005 (ip), vehicle: saline with Tween-80 102 % of control | dose: 200.0 mg/kg/injection, schedule: Q01DX005 (ip), vehicle: saline with Tween-80 105 % of control

CCOC(=O)C(CC)/C(C)=N\NC(N)=S (centres undefined)
inactive: dose: 60.0 mg/kg/injection, schedule: Q01DX005 (ip), vehicle: Klucel (hydroxypropylcellulose) (HPC) 100 % of control | dose: 120.0 mg/kg/injection, schedule: Q01DX005 (ip), vehicle: Klucel (hydroxypropylcellulose) (HPC) 101 % of control | dose: 240.0 mg/kg/injection, schedule: Q01DX005 (ip), vehicle: Klucel (hydroxypropylcellulose) (HPC) 99 % of control

CC1(C)OC1C1CC(C2CCC3(C)C4=CCC5C(C)(C)C(=O)CCC5(C)C4CCC23C)C(O)O1 (centres undefined)
inactive: dose: 1.5 mg/kg/injection, schedule: Q01DX009 (ip), vehicle: Klucel (hydroxypropylcellulose) (HPC) 90 % of control | dose: 3.0 mg/kg/injection, schedule: Q01DX009 (ip), vehicle: Klucel (hydroxypropylcellulose) (HPC) 94 % of control | dose: 6.0 mg/kg/injection, schedule: Q01DX009 (ip), vehicle: Klucel (hydroxypropylcellulose) (HPC) 103 % of control | dose: 12.0 mg/kg/injection, schedule: Q01DX009 (ip), vehicle: Klucel (hydroxypropylcellulose) (HPC) 100 % of control

O=C1CCC2=C1C(c1ccc(Cl)c(Cl)c1)C1=C(CCC1=O)O2
inactive: dose: 100.0 mg/kg/injection, schedule: Q01DX001 (ip), vehicle: Klucel (hydroxypropylcellulose) (HPC) 98 % of control | dose: 200.0 mg/kg/injection, schedule: Q01DX001 (ip), vehicle: Klucel (hydroxypropylcellulose) (HPC) 100 % of control | dose: 400.0 mg/kg/injection, schedule: Q01DX001 (ip), vehicle: Klucel (hydroxypropylcellulose) (HPC) 102 % of control

Fc1ccc(CSc2ncnc3nc[nH]c23)cc1
inactive: [4] 90 % of control | [5] 100 % of control | dose: 400.0 mg/kg/injection, schedule: Q01DX009 (ip), vehicle: saline with Tween-80 100 % of control

OCC1OC(n2cnc3c2NC=NC[C@H]3O)C(O)C1O (some centres undefined)
inactive: dose: 0.1 mg/kg/injection, schedule: Q01DX009 (ip), vehicle: saline 106 % of control | dose: 0.2 mg/kg/injection, schedule: Q01DX005 (ip), vehicle: saline 104 % of control | dose: 0.2 mg/kg/injection, schedule: Q01DX009 (ip), vehicle: saline 111 % of control | dose: 0.4 mg/kg/injection, schedule: Q01DX005 (ip), vehicle: saline 107 % of control | dose: 0.4 mg/kg/injection, schedule: Q01DX009 (ip), vehicle: saline 103 % of control | dose: 0.78 mg/kg/injection, schedule: Q01DX005 (ip), vehicle: saline 99 % of control | dose: 0.8 mg/kg/injection, schedule: Q01DX005 (ip), vehicle: saline 100 % of control | dose: 1.56 mg/kg/injection, schedule: Q01DX005 (ip), vehicle: saline 97 % of control

CCCCCCC(=O)/C=C/c1ccc(OS(=O)(=O)c2ccccc2)cc1
inactive: [3] 105 % of control | [4] 100 % of control | [5] 101 % of control

Cc1nc(N)[nH]c(=O)c1CCCNc1ccc(C(=O)NC(CCC(=O)O)C(=O)O)cc1 (centres undefined)
inactive: [6] 100 % of control | [7] 97 % of control | [8] 100 % of control

CC(=O)SCC1C(=O)CC(C)(C)CC1=O
inactive: dose: 200.0 mg/kg/injection, schedule: Q04DX003 (ip), vehicle: Klucel (hydroxypropylcellulose) (HPC) 89 % of control

O=C(NC(=S)c1ccco1)NS(=O)(=O)c1ccc(Cl)cc1
inactive: dose: 25.0 mg/kg/injection, schedule: Q01DX001 (ip), vehicle: saline with Tween-80 100 % of control | dose: 50.0 mg/kg/injection, schedule: Q01DX001 (ip), vehicle: saline with Tween-80 95 % of control | dose: 100.0 mg/kg/injection, schedule: Q01DX001 (ip), vehicle: saline with Tween-80 96 % of control

CC(Cc1ccccc1)N(C)C1=C(CCC#N)CC(C(C)(C)C)CC1 (centres undefined)
inactive: dose: 50.0 mg/kg/injection, schedule: Q01DX005 (ip), vehicle: saline 100 % of control | dose: 100.0 mg/kg/injection, schedule: Q01DX005 (ip), vehicle: saline 100 % of control

COc1ccc(CC(=O)C(=O)O)cc1OCc1ccccc1
inactive: [9] 96 % of control | dose: 200.0 mg/kg/injection, schedule: Q04DX003 (ip), vehicle: saline with Tween-80 101 % of control | dose: 400.0 mg/kg/injection, schedule: Q04DX003 (ip), vehicle: saline with Tween-80 99 % of control

From PubChem BioAssay AID330 (DTP/NCI, 2004)
